Test results as given in patent publication US9926529B2, “Derivation of neural stem cells and dopaminergic neurons from human pluripotent stem cells” (International Stem Cell Corporation, priority 2012, dated 2018).
Where two headings read alike, the source gives them in different places.

Legend:
hPSC-NSCs [1] = assay: RT-PCR expression of dopamine neuron genes in hPSC-NSCs treated with small molecule hits; type: cell-based, human; conditions: Homo sapiens, Neuron, 336 h, hPSC-NSCs primed 7 days with Purmorphamine and FGF8, small molecule 2.5 μM for two weeks
Method in brief: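 hPSC-NSCs pre-patterned 7 days with Purmorphamine (2 μM) plus FGF8 (100 ng/mL) in NB medium, then treated with compounds at 2.5 μM final for two weeks. Total RNA reverse-transcribed; SYBR Green qPCR for dopaminergic/neuronal markers, relative quantification against a standard curve, normalized to PPIG; mean±s.e.m.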

hPSC-NSCs [2] = assay: Dopamine ELISA of conditioned medium (dopamine release); type: cell-based, human
Experimental: To obtain DA neurons, hPSC-NSC were first primed into DA precursors with 100 ng/mL FGF8 and 2 μM Purmorphamine for 7 days and then used to screen for small molecules that induce terminal dopaminergic differentiation (FIG. 6A). The DA precursors were plated at 2000 cells/well of a 96-well plate and treated with a small molecule library (Tocris 1120 biologically active compounds) at 2.5 μM for two weeks (FIG. 6A). Dopaminergic differentiation was assessed by neurite outgrowth and ELISA analysis for dopamine release (FIG. 6A). From this screen, guggulsterone (GS), a naturally occurring steroid, was identified among the best inducers of dopaminergic differentiation (FIG. 6A). After 30 days of differentiation, GS-treated neurons appeared mature with elaborate neurite extensions. […] Spontaneous action potentials were recorded in whole cultures of GS-treated neurons using a microelectrode array (MEA) system (FIG. 6J). […]
Conditioned medium from the top neurite inducers (Table 1) (wells containing the highest density of neurites compare to control 0.1% DMSO treated) were collected and analyzed using a dopamine ELISA assay (Cosmo Bio). […] Supernatant was then collected and analyzed for quantitative determination of dopamine using a commercial dopamine ELISA assay kit (CusaCosmo Bio). Data analysis was performed using the microtiter plate reader (BIO-TEK Synergy 2). […]

Q: How did the fold induction at 2.5 µM (hPSC-NSCs [1]; read-out: DDC (AADC) expression by RT-PCR) turn out when C/C=C1\C(=O)C[C@H]2[C@@H]3CCC4=CC(=O)CC[C@]4(C)[C@H]3CC[C@]12C [Guggulsterone] was run?
A: Its fold induction at 2.5 µM is 9.82.

Q: And the fold induction at 2.5 µM (hPSC-NSCs [1]; read-out: EN1 expression by RT-PCR)?
A: Its fold induction at 2.5 µM is 10.

Q: What about the fold induction at 2.5 µM (hPSC-NSCs [1]; read-out: KCNJ6 expression by RT-PCR) of the same molecule?
A: The fold induction at 2.5 µM was 0.01.

Q: And the fold induction at 2.5 µM (hPSC-NSCs [1]; read-out: LMX1B expression by RT-PCR)?
A: Its fold induction at 2.5 µM is 6.45.

Q: And the fold induction at 2.5 µM (hPSC-NSCs [1]; read-out: MAP2 expression by RT-PCR)?
A: Its fold induction at 2.5 µM is 9.05.

Q: And the fold induction at 2.5 µM (hPSC-NSCs [1]; read-out: NR4A2 (NURR1) expression by RT-PCR)?
A: Its fold induction at 2.5 µM is 0.53.

Q: What about the fold induction at 2.5 µM (hPSC-NSCs [1]; read-out: PITX3 expression by RT-PCR) of the same molecule?
A: Its fold induction at 2.5 µM is 0.48.

Q: And the fold induction at 2.5 µM (hPSC-NSCs [1]; read-out: Pax2 expression by RT-PCR)?
A: Its fold induction at 2.5 µM is 0.03.

Q: And the fold induction at 2.5 µM (hPSC-NSCs [1]; read-out: SLC6A3 (DAT) expression by RT-PCR)?
A: Its fold induction at 2.5 µM is 1.03.

Q: What about the fold induction at 2.5 µM (hPSC-NSCs [1]; read-out: TH1 expression by RT-PCR) of the same molecule?
A: The fold induction at 2.5 µM was 10.6.

Q: What about the fold induction at 2.5 µM (hPSC-NSCs [1]; read-out: Tubb3 expression by RT-PCR) of the same molecule?
A: The fold induction at 2.5 µM was 6.83.

Q: What about the “increase in dopamine secretion compared to control cells (ELISA)” value (hPSC-NSCs [2]; control: NSCs 1 week FGF8 and purmorphamine, 2 weeks 0.1% DMSO instead of GS) of the same molecule?
A: Its value is “five-fold increase”.

Q: And the “levels of Dopamine spontaneous release” value (hPSC-NSCs [2]; treated hPSC-NSCs, compared among top hits)?
A: The value was “highest levels”.
